In US10544130B2, “Metallo-beta-lactamase inhibitors” (priority 2015, dated 2020):

System: Pseudomonas aeruginosa PAO1 MB9798 (efflux+, IMP-1)
Conditions: ratio MITC95 PA 9798/MITC95 PA 9799; imipenem at 2 μg/mL
Procedure, shortened: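 Isogenic PAO1 pair (efflux+ MB9798, efflux− MB9799, both IMP-1) tested by microbroth MIC with fixed imipenem and/or ceftazidime, usually at CLSI breakpoint, plus fixed class A/C inhibitor against AmpC. MBL inhibitor titrated; concentration restoring susceptibility recorded and fold difference between strains taken as efflux extent.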

Row | SMILES | Efflux ratio
1 | CNCCNS(=O)(=O)c1ccc(-c2cccc3sc(N)nc23)c(-c2nnn[nH]2)c1S(N)(=O)=O [Example 31, 4-(2-amino-1,3-benzothiazol-4-yl)-N^1-[2-(methylamino)ethyl]-3-(1H-tetrazol-5-yl)benzene-1,2-disulfonamide] | 1.50
2 | Nc1nc2c(-c3ccc(S(=O)(=O)N[C@@H]4CN[C@@H](CO)C4)c(S(N)(=O)=O)c3-c3nnn[nH]3)cccc2s1 [Example 79, 4-(2-amino-1,3-benzothiazol-4-yl)-N1-[(3S,5R)-5-(hydroxymethyl)pyrrolidin-3-yl]-3-(1H-tetrazol-5-yl)benzene-1,2-disulfonamide] | 0.50
3 | CN1CCOC(CNS(=O)(=O)c2ccc(-c3cccc4sc(N)nc34)c(-c3nnn[nH]3)c2S(N)(=O)=O)C1 (centres unmarked) [Example 17, 4-(2-amino-1,3-benzothiazol-4-yl)-N1-[(4-methylmorpholin-2-yl)methyl]-3-(1H-tetrazol-5-yl)benzene-1,2-disulfonamide] | 2.00
4 | Cl.Cn1c(N)nc2c(-c3ccc(S(=O)(=O)NCCN)c(S(N)(=O)=O)c3-c3nn[nH]n3)cccc21 [Example 10, 4-(2-amino-1-methyl-1H-benzo[d]imidazol-4-yl)-N1-(2-aminoethyl)-3-(2H-tetrazol-5-yl)benzene-1,2-disulfonamide hydrochloride] | 1.00
5 | CN1CC[C@@H](CNS(=O)(=O)c2ccc(-c3cccc4sc(N)nc34)c(-c3nnn[nH]3)c2S(N)(=O)=O)C1 [Example 76, 4-(2-amino-1,3-benzothiazol-4-yl)-N^1-{[(3R)-1-methylpyrrolidin-3-yl]methyl}-3-(1H-tetrazol-5-yl)benzene-1,2-disulfonamide] | 0.50
6 | Nc1nc2c(-c3ccc(S(=O)(=O)NCC4(CO)CC4)c(S(N)(=O)=O)c3-c3nnn[nH]3)cccc2s1 [Example 37, 4-(2-amino-1,3-benzothiazol-4-yl)-N1-{[1-(hydroxymethyl)cyclopropyl]methyl}-3-(1H-tetrazol-5-yl)benzene-1,2-disulfonamide] | 1.00
7 | Nc1cncc(-c2ccc(S(=O)(=O)N[C@@H]3CCNC3)c(S(N)(=O)=O)c2-c2nn[nH]n2)c1 [Example 219, (R)-4-(5-aminopyridin-3-yl)-N1-(pyrrolidin-3-yl)-3-(2H-tetrazol-5-yl)benzene-1,2-disulfonamide] | 1.00
8 | NS(=O)(=O)c1c(S(=O)(=O)N[C@@H]2CCNC2)ccc(-c2cccc3[nH]cnc23)c1-c1nn[nH]n1 [Example 193, 4-(1H-benzo[d]imidazol-4-yl)-N1-((R)-pyrrolidin-3-yl)-3-(2H-tetrazol-5-yl)benzene-1,2-disulfonamide] | 1.00
9 | Nc1nc2c(-c3ccc(S(=O)(=O)N4CC[C@@H](F)[C@H](N)C4)c(S(N)(=O)=O)c3-c3nn[nH]n3)cccc2[nH]1 [Example 205, 3-(2-amino-1H-benzo[d]imidazol-4-yl)-6-(((3R,4R)-3-amino-4-fluoropiperidin-1-yl)sulfonyl)-2-(2H-tetrazol-5-yl)benzenesulfonamide] | 8.00
10 | Nc1nc2c(-c3ccc(S(=O)(=O)NC4CNC4)c(S(N)(=O)=O)c3-c3nn[nH]n3)cccc2[nH]1 [Example 252, 4-(2-amino-1H-benzo[d]imidazol-4-yl)-N1-(azetidin-3-yl)-3-(2H-tetrazol-5-yl)benzene-1,2-disulfonamide] | 0.68
11 | Nc1nc2c(-c3ccc(S(=O)(=O)N[C@@H]4CCCNC4)c(S(N)(=O)=O)c3-c3nnn[nH]3)cccc2[nH]1 [Example 178, (R)-4-(2-amino-1H-benzo[d]imidazol-4-yl)-N^1-(piperidin-3-yl)-3-(1H-tetrazol-5-yl)benzene-1,2-disulfonamide] | 1.00
12 | Nc1nc2c(-c3ccc(S(=O)(=O)NCC4CCC(=O)N4)c(S(N)(=O)=O)c3-c3nnn[nH]3)cccc2s1 (centres unmarked) [Example 19, 4-(2-amino-1,3-benzothiazol-4-yl)-N1-[(5-oxopyrrolidin-2-yl)methyl]-3-(1H-tetrazol-5-yl)benzene-1,2-disulfonamide] | 1.00
13 | NS(=O)(=O)c1c(S(=O)(=O)N[C@@H]2CCNC2)ccc(-c2cccc3c2OC(F)(F)O3)c1-c1nnn[nH]1 [Example 131, (R)-4-(2,2-difluorobenzo[d][1,3]dioxol-4-yl)-N1-(pyrrolidin-3-yl)-3-(1H-tetrazol-5-yl)benzene-1,2-disulfonamide] | 16.00
14 | Nc1nc2c(-c3ccc(S(=O)(=O)N[C@@H]4CCNC4)c(S(N)(=O)=O)c3-c3nnn[nH]3)cccc2s1 [Example 63, 4-(2-amino-1,3-benzothiazol-4-yl)-N1-[(3R)-pyrrolidin-3-yl]-3-(1H-tetrazol-5-yl)benzene-1,2-disulfonamide] | 0.50
15 | CN1CC2(CCN(S(=O)(=O)c3ccc(-c4cccc5sc(N)nc45)c(-c4nnn[nH]4)c3S(N)(=O)=O)C2)C1 [Example 38, 3-(2-amino-1,3-benzothiazol-4-yl)-6-[(2-methyl-2,6-diazaspiro[3.4]oct-6-yl)sulfonyl]-2-(1H-tetrazol-5-yl)benzenesulfonamide] | 1.00
16 | NC[C@H](O)CNS(=O)(=O)c1ccc(-c2cccc3[nH]cnc23)c(-c2nn[nH]n2)c1S(N)(=O)=O [Example 307, (S)-4-(1H-benzo[d]imidazol-4-yl)-N1-(3-amino-2-hydroxypropyl)-3-(2H-tetrazol-5-yl)-benzene-1,2-disulfonamide] | 1.00
17 | NS(=O)(=O)c1c(S(=O)(=O)N[C@H]2C[C@H](N)C2)ccc(-c2cccc3[nH]cnc23)c1-c1nn[nH]n1 [Example 200, N^1-((1r,3r)-3-aminocyclobutyl)-4-(1H-benzo[d]imidazol-4-yl)-3-(2H-tetrazol-5-yl)benzene-1,2-disulfonamide] | 1.00
18 | CN(C)CC(F)(F)CNS(=O)(=O)c1ccc(-c2cccc3sc(N)nc23)c(-c2nnn[nH]2)c1S(N)(=O)=O [Example 16, 4-(2-amino-1,3-benzothiazol-4-yl)-N1-[3-(dimethylamino)-2,2-difluoropropyl]-3-(1H-tetrazol-5-yl)benzene-1,2-disulfonamide] | 16.00
19 | NC[C@H](N)CNS(=O)(=O)c1ccc(-c2cnccc2N)c(-c2nn[nH]n2)c1S(N)(=O)=O [Example 223, (S)-4-(4-aminopyridin-3-yl)-N1-(2,3-diaminopropyl)-3-(2H-tetrazol-5-yl)benzene-1,2-disulfonamide] | 2.00
20 | Nc1nc2c(-c3ccc(S(=O)(=O)N4CC[C@@H](N)C4)c(S(N)(=O)=O)c3-c3nnn[nH]3)cccc2s1 [Example 62, 3-(2-amino-1,3-benzothiazol-4-yl)-6-{[(3R)-3-aminopyrrolidin-l-yl]sulfonyl}-2-(1H-tetrazol-5-yl)benzenesulfonamide] | 1.00
21 | Nc1nc2c(-c3ccc(S(=O)(=O)NC4CCC5OC4CC5N)c(S(N)(=O)=O)c3-c3nnn[nH]3)cccc2s1.O=C(O)C(F)(F)F (centres unmarked) [Example 95, 2-(4-(2-aminobenzo[d]thiazol-4-yl)-2-sulfamoyl-3-(1H-tetrazol-5-yl)phenylsulfonamido)-8-oxabicyclo[3.2.1] octan-6-aminium 2,2,2-trifluoroacetate] | 1.00
22 | NC[C@@H](O)CNS(=O)(=O)c1ccc(-c2ccc(N)nc2)c(-c2nn[nH]n2)c1S(N)(=O)=O [Example 303, (R)-N1-(3-amino-2-hydroxypropyl)-4-(6-aminopyridin-3-yl)-3-(2H-tetrazol-5-yl)benzene-1,2-disulfonamide] | 1.00
23 | Nc1nc2c(-c3ccc(S(=O)(=O)N4CCC(CO)CC4)c(S(N)(=O)=O)c3-c3nnn[nH]3)cccc2s1 [Example 25, 3-(2-amino-1,3-benzothiazol-4-yl)-6-{[4-(hydroxymethyl)piperidin-1-yl]sulfonyl}-2-(1H-tetrazol-5-yl)benzenesulfonamide] | 16.00
24 | CN1CC(N(C)S(=O)(=O)c2ccc(-c3cccc4sc(N)nc34)c(-c3nnn[nH]3)c2S(N)(=O)=O)C1.O=C(O)C(F)(F)F [Example 107, 3-(4-(2-aminobenzo[d]thiazol-4-yl)-N-methyl-2-sulfamoyl-3-(1H-tetrazol-5-yl)phenylsulfonamido)-1-methylazetidin-1-ium 2,2,2-trifluoroacetate] | 4.00
25 | Nc1nc2c(-c3ccc(S(=O)(=O)N[C@@H]4CNC[C@@H]4F)c(S(N)(=O)=O)c3-c3nnn[nH]3)cccc2s1 [Example 58, 4-(2-amino-1,3-benzothiazol-4-yl)-N1-[(3R,4S)-4-fluoropyrrolidin-3-yl]-3-(1H-tetrazol-5-yl)benzene-1,2-disulfonamide] | 1.00
26 | Nc1ncccc1-c1ccc(S(=O)(=O)NC[C@@H](N)CO)c(S(N)(=O)=O)c1-c1nn[nH]n1 [Example 214, (R)-N1-(2-amino-3-hydroxypropyl)-4-(2-aminopyridin-3-yl)-3-(2H-tetrazol-5-yl)benzene-1,2-disulfonamide] | 8.00
27 | Nc1nc2c(-c3ccc(S(=O)(=O)N[C@H]4CCCNC4)c(S(N)(=O)=O)c3-c3nnn[nH]3)cccc2s1 [Example 67, 4-(2-amino-1,3-benzothiazol-4-yl)-N1-[(3S)-piperidin-3-yl]-3-(1H-tetrazol-5-yl)benzene-1,2-disulfonamide] | 1.00
28 | Nc1nc2c(-c3ccc(S(=O)(=O)N4CC5(CCNC5)C4)c(S(N)(=O)=O)c3-c3nnn[nH]3)cccc2s1 [Example 48, 3-(2-amino-1,3-benzothiazol-4-yl)-6-(2,6-diazaspiro[3.4]oct-2-ylsulfonyl)-2-(1H-tetrazol-5-yl)benzenesulfonamide] | 1.00
29 | COC(=O)[C@H]1C[C@@H](NS(=O)(=O)c2ccc(-c3cccc4sc(N)nc34)c(-c3nnn[nH]3)c2S(N)(=O)=O)CN1 [Example 128, Methyl(2R,4R)-4-((4-(2-aminobenzo[d]thiazol-4-yl)-2-sulfamoyl-3-(1H-tetrazol-5-yl)phenyl)sulfonamido)pyrrolidine-2-carboxylate] | 1.00
